The results in this text go back to PubChem BioAssay (NCI).

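Cells were grown in 96-well plates and exposed to each compound for 48 hours at five concentrations; endpoints were interpolated linearly between bracketing concentrations, or set to the highest concentration if not reached. GI50 = concentration required for 50% inhibition of growth. TGI marks complete inhibition of growth.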

Some test systems named below: SR leukemia; HOP-62 NSCLC; UO-31 renal; CAKI-1 renal; MOLT-4 leukemia; OVCAR-3 ovarian; IGROV1 ovarian; OVCAR-4 ovarian; PC-3 prostate; A549 NSCLC.
Holding throughout (test): NCI-60 cell line screen, 48 h

Take `CCC(C)(C)[C@H](NC(=O)[C@H]1CCCCN1C)C(=O)N(C)[C@H](C[C@@H](OC(C)=O)c1nc(C(=O)N[C@@H](Cc2ccccc2)C[C@H](C)C(=O)O)cs1)C(C)C`: the GI50 in the experiment with SR leukemia is under 0.00167 µM; in the experiment with HOP-62 NSCLC it was under 0.00167 µM; in the experiment on UO-31 renal, 0.00873 µM; in the experiment on CAKI-1 renal it was under 0.00167 µM; in the experiment on MOLT-4 leukemia, under 0.00167 µM; with OVCAR-3 ovarian, under 0.00167 µM. Besides, the GI50 in the experiment on IGROV1 ovarian is under 0.00167 µM; in the experiment on OVCAR-4 ovarian, 0.00798 µM; with PC-3 prostate, under 0.00167 µM; with A549 NSCLC, under 0.00167 µM. For the same molecule, the TGI is over 16.7 µM in the experiment with SR leukemia; over 16.7 µM with HOP-62 NSCLC; over 16.7 µM with UO-31 renal; over 16.7 µM with CAKI-1 renal; over 16.7 µM with MOLT-4 leukemia; 0.00472 µM in the experiment on OVCAR-3 ovarian. The TGI with IGROV1 ovarian, in the experiment with OVCAR-4 ovarian, in the experiment with PC-3 prostate and in the experiment on A549 NSCLC was over 16.7 µM in each case.

With `O=C(Cc1ccc(Nc2ccnc(C(F)(F)F)c2)cc1)N/N=C/c1ccccc1O`, the GI50 was 0.352 µM with SR leukemia; 3.08 µM with HOP-62 NSCLC; 1.52 µM with UO-31 renal; 1.35 µM in the experiment on CAKI-1 renal; 0.904 µM in the experiment on MOLT-4 leukemia; 0.793 µM in the experiment on OVCAR-3 ovarian. For the same molecule, the GI50 in the experiment with IGROV1 ovarian was 2.35 µM; in the experiment with OVCAR-4 ovarian, 3.29 µM; with PC-3 prostate it was 1.09 µM; with A549 NSCLC it was 4.49 µM. The TGI was 4.61 µM in the experiment with SR leukemia; over 48.6 µM in the experiment on HOP-62 NSCLC; over 26 µM in the experiment with UO-31 renal; 13 µM in the experiment with CAKI-1 renal; 7.79 µM with MOLT-4 leukemia; 25.8 µM in the experiment on OVCAR-3 ovarian. Moreover, the TGI was over 24.7 µM in the experiment on IGROV1 ovarian, over 100 µM in the experiment on OVCAR-4 ovarian, 16.6 µM in the experiment with PC-3 prostate and over 100 µM with A549 NSCLC.

With `N#Cc1c2ccccc2c2nnc3ccccc3n12`, the GI50 is 32.7 µM in the experiment with SR leukemia; 24.4 µM in the experiment on HOP-62 NSCLC; 20 µM in the experiment with UO-31 renal; 34.8 µM in the experiment on CAKI-1 renal; 47.1 µM in the experiment with MOLT-4 leukemia; 59.7 µM in the experiment on OVCAR-3 ovarian. Besides, the GI50 in the experiment on IGROV1 ovarian is 19.3 µM; in the experiment with OVCAR-4 ovarian it was over 100 µM; in the experiment on PC-3 prostate, 63.5 µM; in the experiment on A549 NSCLC it was 13.5 µM. Also, the TGI with SR leukemia was over 100 µM; in the experiment with HOP-62 NSCLC, 60.1 µM; with UO-31 renal, over 100 µM; in the experiment with CAKI-1 renal it was over 100 µM; in the experiment on MOLT-4 leukemia, over 100 µM; with OVCAR-3 ovarian, over 100 µM. Further, the TGI is 92.2 µM with IGROV1 ovarian, over 100 µM in the experiment on OVCAR-4 ovarian, over 100 µM with PC-3 prostate and 36.7 µM with A549 NSCLC.

As for `Cn1c(NCC(CN2CCCC2)OC(=O)c2ccccc2)cc(=O)n(C)c1=O` (stereo not given), the GI50 in the experiment with SR leukemia, with HOP-62 NSCLC, with UO-31 renal, in the experiment on CAKI-1 renal, in the experiment on MOLT-4 leukemia and with OVCAR-3 ovarian was over 100 µM each time. For the same molecule, the GI50 in the experiment with IGROV1 ovarian, with OVCAR-4 ovarian, with PC-3 prostate and in the experiment with A549 NSCLC was over 100 µM throughout. Moreover, the TGI with SR leukemia, with HOP-62 NSCLC, in the experiment on UO-31 renal, with CAKI-1 renal, in the experiment with MOLT-4 leukemia and in the experiment on OVCAR-3 ovarian was over 100 µM each time. The TGI in the experiment on IGROV1 ovarian, in the experiment on OVCAR-4 ovarian, with PC-3 prostate and with A549 NSCLC was over 100 µM in each case.

Regarding `O=C1/C(=C\c2ccccc2)CN(C(=O)c2ccccc2)C/C1=C\c1ccccc1`, the GI50 in the experiment on SR leukemia was 0.335 µM; in the experiment with HOP-62 NSCLC, 3.21 µM; in the experiment with UO-31 renal it was 1.7 µM; in the experiment with CAKI-1 renal, 2.74 µM; with MOLT-4 leukemia, 3.19 µM; with OVCAR-3 ovarian it was 2.69 µM. Also, the GI50 with IGROV1 ovarian was 2.66 µM; in the experiment on OVCAR-4 ovarian, 2.98 µM; with PC-3 prostate, 2.27 µM; in the experiment with A549 NSCLC, 3.63 µM. Also, the TGI was found to be 2.9 µM with SR leukemia; 10.7 µM in the experiment on HOP-62 NSCLC; 3.92 µM in the experiment with UO-31 renal; 11.1 µM in the experiment on CAKI-1 renal; 43.6 µM in the experiment on MOLT-4 leukemia; 6.34 µM in the experiment with OVCAR-3 ovarian. In addition, the TGI with IGROV1 ovarian came to 6.57 µM; in the experiment on OVCAR-4 ovarian, 11.4 µM; with PC-3 prostate it was 7.86 µM; with A549 NSCLC, 16.3 µM.

As to `CCCOc1ccc(/C=N/Nc2cc(C)nc3ccc(Cl)cc23)cc1`, the GI50 in the experiment with SR leukemia was 1.17 µM; with HOP-62 NSCLC, 1.58 µM; in the experiment on UO-31 renal, 1.56 µM; with CAKI-1 renal, 1.78 µM; in the experiment with MOLT-4 leukemia, 1.81 µM; in the experiment on OVCAR-3 ovarian, 2.13 µM. For the same molecule, the GI50 with IGROV1 ovarian was 1.92 µM; with OVCAR-4 ovarian it was 1.71 µM; in the experiment with PC-3 prostate, 1.53 µM; in the experiment on A549 NSCLC, 1.72 µM. Also, the TGI turned out to be 3.75 µM in the experiment with SR leukemia; 2.98 µM in the experiment on HOP-62 NSCLC; 2.91 µM in the experiment on UO-31 renal; 3.2 µM with CAKI-1 renal; 3.77 µM in the experiment on MOLT-4 leukemia; 3.7 µM in the experiment with OVCAR-3 ovarian. Also, the TGI with IGROV1 ovarian was determined as 3.63 µM; in the experiment on OVCAR-4 ovarian, 3.2 µM; in the experiment on PC-3 prostate it was 3.13 µM; in the experiment with A549 NSCLC, 3.35 µM.

As for `Oc1ccc(Cc2ccc(O)c(C3CC(c4ccc(Cl)cc4)=NN3)c2)cc1C1CC(c2ccc(Cl)cc2)=NN1` (stereo not given), the GI50 is 2.77 µM in the experiment with SR leukemia; 3.81 µM in the experiment with HOP-62 NSCLC; 3.07 µM in the experiment on UO-31 renal; 3.19 µM in the experiment with CAKI-1 renal; 2.84 µM with MOLT-4 leukemia; 2.71 µM with OVCAR-3 ovarian. The GI50 in the experiment on IGROV1 ovarian was 3.69 µM; in the experiment on OVCAR-4 ovarian, 2.97 µM; with PC-3 prostate, 3.67 µM; in the experiment with A549 NSCLC, 2.79 µM. The TGI in the experiment on SR leukemia was over 100 µM; with HOP-62 NSCLC, over 45.2 µM; in the experiment on UO-31 renal, over 100 µM; in the experiment with CAKI-1 renal, over 58.4 µM; in the experiment with MOLT-4 leukemia, over 100 µM; in the experiment with OVCAR-3 ovarian, 16.5 µM. Also, the TGI with IGROV1 ovarian is over 72.3 µM; with OVCAR-4 ovarian it was over 44.6 µM; in the experiment on PC-3 prostate it was over 100 µM; in the experiment with A549 NSCLC, over 100 µM.
